This note sets out measurements from patent US4444771A, “Azeto triazolo pyrazine β-lactam antibacterial agents” (Beecham Group Limited, priority 1980, dated 1984).

Counter-ions that a name gives are not always drawn. A value given as a limit tells only on which side of the number the result lay.

Format in all cases: cell-based
Assay [1] has as its system E. coli. Nature of the assay: Antibacterial activity, minimum inhibitory concentration, E. coli. The following applies: Escherichia coli, serial dilution, DST agar + 10% horse blood, 10^-4 dilution inoculum, 37°, 18 h. The method, then: (§1) Minimum Inhibitory Concentration μg/ml^a
(§2) ^a Determined by serial dilution on DST agar containing 10% horse
(§3) blood using an inoculum of 0.001 ml of a 10^-2 dilution for
(§4) Grampositive bacteria or a 10^-4 dilution for Gramnegative organisms.
(§5) MIC values were read after incubation at 37° for eighteen hours.

Assay [2] deals with S. typhimurium. Description: Antibacterial activity, minimum inhibitory concentration, S. typhimurium. The following applies: Salmonella enterica, serial dilution, DST agar + 10% horse blood, 10^-4 dilution inoculum, 37°, 18 h. As for the experimental part:
as §1, §2, §3, §4, §5

Assay [3] relates to S. aureus Russell. Nature of the assay: Antibacterial activity, minimum inhibitory concentration, S. aureus Russell. The conditions noted are these: Staphylococcus aureus; S. aureus Russell (lactamase-producing benzylpenicillin-resistant strain); serial dilution, DST agar + 10% horse blood, 10^-2 dilution inoculum, 37°, 18 h. As for the experimental part: as §1, §2, §3, §4, §5
^b lactamase-producing benzylpenicillinresistant strain.

Assay [4] deals with K. aerogenes. Description: Antibacterial activity, minimum inhibitory concentration, K. aerogenes. The following applies: Klebsiella aerogenes, serial dilution, DST agar + 10% horse blood, 10^-4 dilution inoculum, 37°, 18 h. As for the experimental part:
as §1, §2, §3, §4, §5

Assay [5] has as its system S. aureus Oxford. Nature of the assay: Antibacterial activity, minimum inhibitory concentration, S. aureus Oxford. The following applies: Staphylococcus aureus, serial dilution, DST agar + 10% horse blood, 10^-2 dilution inoculum, 37°, 18 h. As for the experimental part: as §1, §2, §3, §4, §5
Assay [6] concerns S. faecalis. Description: Antibacterial activity, minimum inhibitory concentration, S. faecalis. The conditions noted are these: Enterococcus faecalis, serial dilution, DST agar + 10% horse blood, 10^-2 dilution inoculum, 37°, 18 h. As for the experimental part:
as §1, §2, §3, §4, §5

The subject of assay [7] is S. pyogenes. Description: Antibacterial activity, minimum inhibitory concentration, S. pyogenes. The following applies: Streptococcus pyogenes, serial dilution, DST agar + 10% horse blood, 10^-2 dilution inoculum, 37°, 18 h. As for the experimental part: as §1, §2, §3, §4, §5
Assay [8] concerns B. subtilis. Description: Antibacterial activity, minimum inhibitory concentration, B. subtilis. The following applies: Bacillus subtilis, serial dilution, DST agar + 10% horse blood, 10^-2 dilution inoculum, 37°, 18 h. The method, then:
as §1, §2, §3, §4, §5

In assay [9] the test system is P. mirabilis. Description: Antibacterial activity, minimum inhibitory concentration, P. mirabilis. The conditions noted are these: Proteus mirabilis, serial dilution, DST agar + 10% horse blood, 10^-4 dilution inoculum, 37°, 18 h. As for the experimental part:
as §1, §2, §3, §4, §5

Assay [10] has as its system S. pneumoniae. Nature of the assay: Antibacterial activity, minimum inhibitory concentration, S. pneumoniae. The conditions noted are these: Streptococcus pneumoniae, serial dilution, DST agar + 10% horse blood, 10^-2 dilution inoculum, 37°, 18 h. As for the experimental part: as §1, §2, §3, §4, §5

For orientation: MIC means the least concentration at which growth counts as inhibited. As for `CC1=C(C(=O)O)N2C(=O)C(NC(=O)[C@H](N)c3ccccc3)C2c2cnnn21` (stereo partly drawn) [Compound 28, (4bRS,5RS)-5,6-Dihydro-9-methyl-6-oxo-5-D-α-phenylglycylamino-4bH-azeto-[2,1-c]-v-triazolo[1,5-a]pyrazine-8-carboxylic acid, p-toluidine salt], the minimal inhibitory concentration (MIC) was > 100 µg/mL in [1]; > 100 µg/mL in assay [2]; > 100 µg/mL in assay [3]; > 100 µg/mL in assay [4]; 100 µg/mL in assay [5]; > 100 µg/mL in [6]. Moreover, the MIC was 2.5 µg/mL in assay [7], 10 µg/mL in assay [8], > 100 µg/mL in assay [9] and 10 µg/mL in assay [10].

Turning to `CC1=C(C(=O)O)N2C(=O)[C@H](NC(=O)COc3ccccc3)[C@@H]2c2cnnn21` (relative stereo) [Compound 15, (4bRS,5RS) 5,6-Dihydro-9-methyl-6-oxo-5-phenoxyacetamido-4bH-azeto-[2,1-c]v-triazolo-[1,5-a]-pyrazine-8-carboxylic acid], the MIC in assay [1] is > 100 µg/mL; in assay [2], > 100 µg/mL; in assay [3], 100 µg/mL; in [4], > 100 µg/mL; in assay [5], 25 µg/mL; in assay [6], > 100 µg/mL. In addition, the MIC in assay [7] was 5 µg/mL; in [8], 5 µg/mL; in assay [9], > 100 µg/mL; in assay [10], 2.5 µg/mL.

Turning to `CC(=O)N[C@H]1C(=O)N2C(C(=O)O)=C(C)n3nncc3[C@@H]12` (relative stereo) [Compound 35, (4bRS,5RS) 5-Acetamido-5,6-dihydro-9-methyl-6-oxo-4bH-azeto-[2,1-c]-v-triazolo-pyrazine-8-carboxylic acid], the MIC in assay [1] is > 100 µg/mL; in [2] it was 100 µg/mL; in assay [3] it was > 100 µg/mL; in assay [4] it was > 100 µg/mL; in assay [5], 100 µg/mL; in assay [6] it was > 100 µg/mL. Besides, the MIC was 2.5 µg/mL in assay [7], 5 µg/mL in assay [8], > 100 µg/mL in assay [9] and 5 µg/mL in [10].

In the case of `CC1=C(C(=O)O)N2C(=O)[C@@H](NC(=O)COc3ccccc3)[C@H]2c2cnnn21` [Compound 42, (4bS,5S)-5,6-Dihydro-9-methyl-6-oxo-5-phenoxyacetamido-4bH-azeto-[2,1-c]-v-triazolo-[1,5-a]-pyrazine-8-carboxylic acid], the MIC in assay [1] was > 50 µg/mL; in assay [2], > 50 µg/mL; in assay [3], > 50 µg/mL; in [4], > 50 µg/mL; in assay [6], 50 µg/mL; in assay [7], 2.5 µg/mL. Further, the minimal inhibitory concentration (MIC) in assay [8] was 0.5 µg/mL; in assay [9], > 50 µg/mL; in [10], 5 µg/mL.

For `CC1=C(C(=O)O)N2C(=O)[C@H](NC(=O)[C@H](O)c3ccccc3)[C@@H]2c2cnnn21` [Compound 39, (4bR,5R) 5,6-Dihydro-5-D-α-hydroxyphenylacetamido-9-methyl-6-oxo-4bH-azeto-[2,1-c]-v-triazolo-[1,5-a]-pyrazine-8-carboxylic acid], the MIC in assay [1], in assay [2], in assay [3], in [4], in assay [5] and in [6] was > 100 µg/mL in each case. Moreover, the MIC in assay [7] was > 100 µg/mL; in assay [8] it was 100 µg/mL; in [9], > 100 µg/mL; in assay [10], > 100 µg/mL.

Take `CC1=C(C(=O)O)N2C(=O)[C@H](NC(=O)Cc3cccs3)[C@@H]2c2cnnn21` (relative stereo) [Compound 55, (4bRS,5RS) 5,6-Dihydro-9-methyl-6-oxo-5-(2-thienylacetamido)-4bH-azeto-[2,1-c]-v-triazolo-[1,5-a]-pyrazine-8-carboxylic acid, p-toluidine salt)]: the MIC in assay [3] was 100 µg/mL; in assay [4], 100 µg/mL; in assay [5] it was 10 µg/mL; in [6], 25 µg/mL; in [7] it was 0.2 µg/mL; in [8], 0.5 µg/mL. Also, the MIC in assay [9] was found to be 10 µg/mL; in assay [10] it was 2.5 µg/mL.

As for `CC1=C(C(=O)O)N2C(=O)[C@@H](NC(=O)[C@H](O)c3ccccc3)[C@H]2c2cnnn21` [Compound 40, (4bS,5S)-5,6-Dihydro-5-D-α-hydroxyphenylacetamido-9-methyl-6-oxo-4bH-azeto-[2,1-c]-v-triazolo-[1,5-a]-pyrazine-8-carboxylic acid], the MIC in assay [1] was > 100 µg/mL; in assay [2], 25 µg/mL; in assay [3], 100 µg/mL; in assay [4], 100 µg/mL; in [5], 25 µg/mL; in assay [6] it was 100 µg/mL. For the same molecule, the MIC was 50 µg/mL in [7], 0.5 µg/mL in assay [8], 10 µg/mL in [9] and ≤ 0.2 µg/mL in assay [10].

As for `CC1=C(C(=O)O)N2C(=O)[C@H](NC(=O)C(C(=O)Oc3ccccc3)c3ccccc3)[C@@H]2c2cnnn21` (relative stereo) [Compound 22, (4bRS,5RS) 5,6-Dihydro-9-methyl-6-oxo-5-[DL-α-phenoxycarbonylphenylacetamido]-4bH-azeto[2.1-c]-v-triazolo[1.5-a]-pyrazine-8-carboxylic acid], the MIC in assay [1] is 100 µg/mL; in assay [2] it was 50 µg/mL; in assay [3], > 100 µg/mL; in [4], > 100 µg/mL; in assay [5], > 100 µg/mL; in [6], > 100 µg/mL. The MIC in assay [8] and in [9] was 100 µg/mL each time.
